Reference: US8327467B2, “Anthranilic acid derivative or salt thereof” (Toyama Chemical Co., Ltd., priority 2005, dated 2012)
Counter-ions that a name gives are not always drawn.

Key:
MMP-13 = MMP-13 production inhibition test; assay type: cell-based; settings: 30 μmol/L; human cartilage derived cell line SW1353, IL-1β 10 ng/mL, 16 hours after stimulation, MMP-13 in culture supernatant by ELISA; read-out: Inhibition rate (%) at 30 μmol/L
Experimental: MMP-13 Production Inhibition Test
6.8×10^3 human cartilage derived cell line SW1353 cells were suspended in 100 μL of Dulbecco modified Eagle's medium supplemented with 10% fetal calf serum, plated on 96-well plates and cultured for 3 days. After the culture medium was changed to Dulbecco modified Eagle's medium containing 0.2% lactalbumin hydrolysate and the cells were cultured for 6 hours, test compounds were added and then IL-1β was added to obtain the final concentration of 10 ng/mL 1 hour later. 16 hours after the stimulation, supernatant was collected and the amount of MMP-13 in the culture supernatant was determined with an ELISA kit (Amersham). The inhibition rate was calculated from the amount of MMP-13 in the presence of a test compound assuming that the amount of MMP-13 was 100% in the absence of the test compound.

[1] = tested on: type II collagen-induced arthritis; assay: Type II collagen-induced arthritis in mice; assay type: in vivo; settings: male DBA/1 J mice, 10 mg/kg orally once a day from the 21st day to the 35th day
Experimental: Type II Collagen-Induced Arthritis in Mice
Eight-week old male DBA/1 J mice were used (Charles River Laboratories Japan Inc.). 4 mg/mL bovine type II collagen (Collagen Gijutsu Kenshukai) dissolved in 0.01 mol/L of acetic acid aqueous solution and an equal amount of Freund's complete adjuvant (Chondorex) containing 1 mg/mL of killed tuberculosis bacillus were added to prepare an emulsion, and 0.1 mL thereof was intradermally injected at the base of tail. Similar treatment was conducted on the 21st day to cause arthritis. The test compound was suspended in 0.5% methylcellulose aqueous solution, and 10 mg/kg was orally administered once a day from the 21st day to the 35th day. In the control group,0.5% methylcellulose aqueous solution was administered in the same manner. The severity of arthritis was estimated by scoring at zero point for an animal without change; one point for an animal with swelling at the one or two finger joint or light swelling only at the carpal or tarsal joint; two points for an animal with severe swelling at the carpal or tarsal joint or with swelling at three or more finger joints; three points for an animal with severe swelling along the whole foreleg or hindleg and thus counting 12 points at the maximum for the four limbs as arthritis score. […] The inhibitory rate was determined by the following expression. […]

SMILES	inhibition at 30 µM (MMP-13)	inhibitory action on arthritis (arthritis score) [1]	inhibitory action on bone destruction (bone destruction score, X-ray on the 36th day) [1]
O=C(O)c1ccc(CCc2ccccc2)cc1Nc1ccc(F)cc1 [Example 38, 2-(4-Fluoroanilino)-4-phenethylbenzoic acid]	97%	exhibited inhibitory action	exhibited inhibitory action
Cc1ccccc1Nc1cc(-c2cccc(O)c2)ccc1C(=O)O [Example 280, 4-(3-Hydroxyphenyl)-2-(2-methylanilino)benzoic acid]	90%		
O=C(O)c1ccc(N2CCc3ccccc32)cc1Nc1cccc(O)c1 [Example 286, 2-((3-hydroxyphenyl)amino)-4-(indolin-1-yl)benzoic acid]	96%		
COc1cccc(CCc2ccc(C(=O)O)c(Nc3ccccc3C)c2)c1 [Example 290, 4-(2-(3-Methoxyphenyl)ethyl)-2-(2-methylanilino)benzoic acid]	98%		
O=C(O)c1ccc(CCc2ccc3c(c2)OCCO3)cc1Nc1cccc(O)c1 [Example 293, 4-(2-(2,3-dihydro[1,4]benzodioxin-6-yl)ethyl)-2-((3-hydroxyphenyl)amino)benzoic acid]	87%		
O=C(O)c1ccc(CCc2ccccc2)cc1Nc1cc(-c2ccccc2)n[nH]1 [Example 329, 4-Phenethyl-2-((3-phenyl-1H-pyrazol-5-yl)amino)benzoic acid]	96%		
O=C(O)c1ccc(CCc2ccccc2)cc1Nc1ccc2[nH]ccc2c1 [Example 331, 2-((1H-Indol-5-yl)amino)-4-phenethylbenzoic acid]	97%		
O=C(O)c1ccc(-c2ccccc2)cc1Nc1cccc2cccnc12 [Example 340, 4-Phenyl-2-((quinolin-8-yl)amino)benzoic acid]	97%		
O=C(O)c1ccc(-c2ccccc2)cc1Nc1ccccc1Cl [Example 343, 2-(2-Chloroanilino)-4-phenylbenzoic acid]	98%		
O=C(O)c1ccc(-c2ccccc2)cc1NCC=Cc1ccccc1 [Example 350, 2-(Cinnamylamino)-4-phenylbenzoic acid]	91%		
O=C(O)c1ccc(CCc2ccccc2)cc1Nc1cccc2cnccc12 [Example 360, 2-((Isoquinolin-5-yl)amino)-4-phenethylbenzoic acid trifluoroacetate]	97%		
O=C(O)c1ccc(CCc2ccccc2)cc1Nc1cccc(-n2cccn2)c1 [Example 362, 4-Phenethyl-2-(3-(1H-pyrazol-1-yl)phenylamino)benzoic acid]	97%		
O=C(O)c1ccc(CCc2ccccc2)cc1Nc1ccc(-n2cccn2)cc1 [Example 363, 4-Phenethyl-2-(4-(1H-pyrazol-1-yl)phenylamino)benzoic acid]	96%		
CN(C)c1ccccc1Nc1cc(-c2ccccc2)ccc1C(=O)O [Example 372, 2-((2-(dimethylamino)phenyl)amino)-4-phenylbenzoic acid]	97%		
